Measured values published in paper PMC4907692, “Engineering vanilloid-sensitivity into the rat TRPV2 channel” (eLife, 2016).

Tests used:
[1] = molecular target: T1, TRPV1 QM (S512F, M547L, T550L, E570Q) (Rattus norvegicus, UniProt O35433, E570Q/M547L/S512F/T550L); assay: Two-electrode voltage-clamp in Xenopus oocytes, TRPV1 QM; assay type: cell-based; conditions: 2 mM 2-APB
T1 construct: expressed in transfected cells; host or cells: Xenopus oocytes (cRNA injection)
Source text: (§1) To further investigate the putative vanilloid binding pocket in TRPV1, we inspected the cryo-EM structure of TRPV1, looking for residues that are located nearby to the putative RTx density (Figure 1B; regions/residues highlighted in yellow) and that differ between TRPV1 and TRPV2 channels (Figure 3—figure supplement 1; regions highlighted in magenta). […] To quantify the contribution of each of these residues to TRPV1 channel activation by RTx under our experimental conditions, we mutated each to the corresponding residue in TRPV2. We then expressed each construct in oocytes and used the two electrode voltage-clamp technique to study activation by RTx and by the non-specific TRPV channel activator 2-APB. We recorded time courses for channel activation by each agonist while stepping the membrane potential from −60 to +60 mV every 3 s from a holding potential of 0 mV using an external recording solution containing 100 mM KCl (internal K^+ concentration in a healthy oocyte is 100 mM) (Figure 3A, left). We also recorded current-voltage (I-V) relations by stepping over a wider range of voltages in the absence and presence of activators, or in the presence of ruthenium red (RR), a non-specific inhibitor of TRP channels (Figure 3A, right). […]

WT TRPV1 = molecular target: T2, WT TRPV1 (Rattus norvegicus, UniProt O35433); assay: Two-electrode voltage-clamp in Xenopus oocytes, WT TRPV1; assay type: cell-based
T2 construct: expressed in transfected cells; host or cells: Xenopus oocytes (cRNA injection, pGEM-HE)
Source text: To further investigate the putative vanilloid binding pocket in TRPV1, we inspected the cryo-EM structure of TRPV1, looking for residues that are located nearby to the putative RTx density (Figure 1B; regions/residues highlighted in yellow) and that differ between TRPV1 and TRPV2 channels (Figure 3—figure supplement 1; regions highlighted in magenta). […] To quantify the contribution of each of these residues to TRPV1 channel activation by RTx under our experimental conditions, we mutated each to the corresponding residue in TRPV2. We then expressed each construct in oocytes and used the two electrode voltage-clamp technique to study activation by RTx and by the non-specific TRPV channel activator 2-APB. We recorded time courses for channel activation by each agonist while stepping the membrane potential from −60 to +60 mV every 3 s from a holding potential of 0 mV using an external recording solution containing 100 mM KCl (internal K^+ concentration in a healthy oocyte is 100 mM) (Figure 3A, left). We also recorded current-voltage (I-V) relations by stepping over a wider range of voltages in the absence and presence of activators, or in the presence of ruthenium red (RR), a non-specific inhibitor of TRP channels (Figure 3A, right).
The WT rat TRPV1 and TRPV2 channels in the pcDNA3.1 vector were kindly provided by Dr. David Julius (UCSF) ([Caterina et al., 1997]; [Caterina et al., 1999]) and subcloned into the pGEM-HE vector ([Liman et al., 1992]). Mutations were introduced into rTRPV1 using a two-step PCR mutagenesis technique and the resulting constructs were verified by sequencing. All channel constructs were expressed in Xenopus oocytes and studied following 1–4 days incubation after cRNA injection (incubated at 17°C in 96 mM NaCl, 2 mM KCl, 5 mM HEPES, 1 mM MgCl2 and 1.8 mM CaCl2, 50 μg/ml gentamycin, pH 7.6 with NaOH) using the two-electrode voltage-clamp recording technique (OC-725C, Warner Instruments, Hamden, CT) with a 150 μl recording chamber. Data were filtered at 1–3 kHz and digitized at 20 kHz using pClamp software (Molecular Devices, Sunnyvale, CA). […]

WT TRPV2 = molecular target: T3, WT TRPV2 (Rattus norvegicus, UniProt Q9WUD2); assay: Two-electrode voltage-clamp in Xenopus oocytes, WT TRPV2; assay type: cell-based; conditions: 4 mM 2-APB
T3 construct: expressed in transfected cells; host or cells: Xenopus oocytes (cRNA injection, pGEM-HE)
Source text: as §1

TRPV2 = test system: TRPV2; set-up: method as in Caterina et al., 1999; conditions: ref Caterina et al., 1999; cited from earlier work
TRPV2 QM = molecular target: T4, TRPV2 QM (Rattus norvegicus, UniProt Q9WUD2, F472S/L507M/L510T/Q530E); assay: Two-electrode voltage-clamp in Xenopus oocytes, TRPV2 QM; assay type: cell-based; conditions: 50 µM capsaicin
T4 construct: expressed in transfected cells; host or cells: Xenopus oocytes (cRNA injection)
T4 sequence (Q9WUD2 1-761 F472S/L507M/L510T/Q530E): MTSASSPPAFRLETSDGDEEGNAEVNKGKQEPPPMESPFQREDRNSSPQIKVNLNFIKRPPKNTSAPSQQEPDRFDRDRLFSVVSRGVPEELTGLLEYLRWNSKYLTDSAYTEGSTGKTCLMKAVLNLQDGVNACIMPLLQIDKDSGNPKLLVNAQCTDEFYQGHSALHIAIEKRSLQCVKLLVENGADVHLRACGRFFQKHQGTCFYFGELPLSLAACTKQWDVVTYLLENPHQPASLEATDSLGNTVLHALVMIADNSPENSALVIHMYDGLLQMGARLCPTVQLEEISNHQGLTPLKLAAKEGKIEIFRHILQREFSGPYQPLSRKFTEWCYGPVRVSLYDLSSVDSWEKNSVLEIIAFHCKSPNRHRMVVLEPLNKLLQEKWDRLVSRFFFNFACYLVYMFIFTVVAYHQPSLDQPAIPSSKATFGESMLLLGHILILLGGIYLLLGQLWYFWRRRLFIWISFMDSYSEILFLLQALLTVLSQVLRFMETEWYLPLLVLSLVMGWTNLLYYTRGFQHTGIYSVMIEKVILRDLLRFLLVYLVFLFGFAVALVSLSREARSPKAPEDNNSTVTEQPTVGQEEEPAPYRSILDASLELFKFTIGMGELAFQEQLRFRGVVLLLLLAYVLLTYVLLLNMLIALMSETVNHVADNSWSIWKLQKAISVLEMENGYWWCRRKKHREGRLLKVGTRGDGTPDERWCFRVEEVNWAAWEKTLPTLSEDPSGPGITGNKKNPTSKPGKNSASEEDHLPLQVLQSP
Source text: as §1

[2] = test system: full-length 1D4-tagged TRPV1; assay: 3H-RTx binding to S. cerevisiae membranes containing 1D4-tagged TRPV1; set-up: species or system rat; conditions: membranes, RTx binding in the presence of DkTx vs control
Source text: The polymodal activation of TRPV1 has been widely conceptualized using allosteric models wherein binding of activators (such as vanilloids, protons, DkTx or voltage) are allosterically coupled to opening of the pore ([Brauchi et al., 2004]; [Jara-Oseguera et al., 2016]; [Matta and Ahern, 2007]). The allosteric nature of these interactions has begun to be explored using electrophysiological measurements of channel function ([Jara-Oseguera et al., 2016]; [Yao et al., 2010]), but has thus far not been investigated biochemically. We therefore tested whether binding of DkTx can enhance the affinity of TRPV1 for RTx, which would be predicted by an allosteric model wherein the two activators promote opening by binding more tightly to the open state. For these experiments we used a 1D4-tagged TRPV1 construct where expression in S. cerevisiae was driven by a constitutive promoter and we performed binding assays on yeast membranes where the vanilloid would have free access to the channel protein (see Methods). Under these conditions, we measured a Kd for RTx binding to 1D4-tagged TRPV1 of 0.6 nM under control conditions, about ten fold higher affinity than what we measured in intact cells using GFP-tagged TRPV1. When we measured the concentration-dependence of RTx binding to 1D4-tagged TRPV1 in the presence of DkTx, we observed that the tarantula toxin enhanced the affinity for RTx by about 3-fold (Figure 2A). The effects of DkTx were concentration-dependent (Figure 2B) and were observed independent of whether the binding assay was performed at 37°C (our standard temperature) or at 30°C (Figure 2A).
The full-length TRPV1 and TRPV2 channels with 1D4 affinity tags (TETSQVAPA) on their C-termini were cloned into the YEpHIS vector and expressed in the BJ5457 strain of S. cerevisiae using the strong constitutively active PMA1 promoter, as previously described ([Moiseenkova-Bell et al., 2008]). After 48 hr of expression at 30°C in YPD media, cells were harvested by centrifugation and re-suspended in PBS buffer, supplemented with complete protease inhibitor cocktail (Roche, Indianapolis, IN) and 4-amidinophenylmethanesulfonyl fluoride hydrochloride (APMSF) (Sigma-Aldrich, St. Louis, MO). Cells were broken by passing through an Avestin homogenizer at the pressure of 35 kpsi, cell lysate was cleared by centrifugation at 8,000 g for 15 min and membranes were isolated by ultracentrifugation at 190,000 g for 1 hr. Membrane pellets were re-suspended in PBS buffer supplemented with protease inhibitors and 200 mM sucrose, flash-frozen in liquid nitrogen and stored at -70°C until RTx binding measurements.
S. cerevisiae cells overexpressing TRPV1 constructs to be used in ligand binding assays on intact cells (Figure 1E,F) were grown as for small scale expression trials. 24 hr after protein induction cells were spun down at 4000g, the supernatant was removed and the pellet resuspended in 1x PBS, normalizing OD600 to 75 for each sample, and aliquoted for storage at -80°C. ^3H-RTx binding assays on cells were performed at 37°C as previously described ([Feng et al., 2015]), but where non-specific binding of RTx was measured using cells expressing GFP alone. The binding of RTx to TRPV1 and TRPV2 in membranes (e.g. Figure 2A,B and 5C) was performed at 37°C unless otherwise stated using membranes prepared from large scale protein preparations of S. cerevisiae containing rat TRPV1 and TRPV2 with a 1D4 tag expressed using a constitutive promoter as in [Moiseenkova-Bell et al., 2008]. Data for binding of RTx to membranes was corrected for non-specific binding, determined using either excess non-radioactive ligand or heat inactivation of the protein, as previously described ([Feng et al., 2015]). The TRPV1-activating double-knot toxin (DkTx) was produced recombinantly, folded in vitro and purified as previously described ([Bae et al., 2012]). Yeast membranes were incubated with DkTx solution for 1 hr at 4°C with gentle agitation prior to undertaking RTx binding assays. […]

T2 sequence (O35433 whole entry): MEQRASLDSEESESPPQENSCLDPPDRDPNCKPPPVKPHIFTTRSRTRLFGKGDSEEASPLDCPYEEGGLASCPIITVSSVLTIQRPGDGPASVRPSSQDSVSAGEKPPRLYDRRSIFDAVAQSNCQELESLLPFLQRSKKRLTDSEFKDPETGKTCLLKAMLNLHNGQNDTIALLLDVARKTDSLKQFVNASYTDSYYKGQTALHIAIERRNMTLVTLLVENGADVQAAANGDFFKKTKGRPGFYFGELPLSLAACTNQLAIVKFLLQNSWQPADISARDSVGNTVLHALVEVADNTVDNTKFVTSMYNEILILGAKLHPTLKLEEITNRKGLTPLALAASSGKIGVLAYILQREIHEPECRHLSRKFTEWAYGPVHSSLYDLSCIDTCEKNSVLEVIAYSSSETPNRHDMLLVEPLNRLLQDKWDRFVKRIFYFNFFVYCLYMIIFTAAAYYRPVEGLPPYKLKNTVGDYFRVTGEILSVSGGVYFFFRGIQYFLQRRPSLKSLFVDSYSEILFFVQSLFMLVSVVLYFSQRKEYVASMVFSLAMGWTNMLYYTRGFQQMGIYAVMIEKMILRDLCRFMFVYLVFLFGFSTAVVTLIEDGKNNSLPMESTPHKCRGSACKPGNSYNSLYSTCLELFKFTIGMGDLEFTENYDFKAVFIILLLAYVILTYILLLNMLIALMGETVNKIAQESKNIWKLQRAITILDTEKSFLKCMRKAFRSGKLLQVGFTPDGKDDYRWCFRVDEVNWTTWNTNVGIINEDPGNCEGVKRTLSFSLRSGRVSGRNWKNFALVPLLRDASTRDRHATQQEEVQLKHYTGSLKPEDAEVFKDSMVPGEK
T1 sequence (O35433 whole entry S512F/M547L/T550L/E570Q): as the sequence (O35433 whole entry) above, with S512F, M547L, T550L, E570Q counted along it
T3 sequence (Q9WUD2 whole entry): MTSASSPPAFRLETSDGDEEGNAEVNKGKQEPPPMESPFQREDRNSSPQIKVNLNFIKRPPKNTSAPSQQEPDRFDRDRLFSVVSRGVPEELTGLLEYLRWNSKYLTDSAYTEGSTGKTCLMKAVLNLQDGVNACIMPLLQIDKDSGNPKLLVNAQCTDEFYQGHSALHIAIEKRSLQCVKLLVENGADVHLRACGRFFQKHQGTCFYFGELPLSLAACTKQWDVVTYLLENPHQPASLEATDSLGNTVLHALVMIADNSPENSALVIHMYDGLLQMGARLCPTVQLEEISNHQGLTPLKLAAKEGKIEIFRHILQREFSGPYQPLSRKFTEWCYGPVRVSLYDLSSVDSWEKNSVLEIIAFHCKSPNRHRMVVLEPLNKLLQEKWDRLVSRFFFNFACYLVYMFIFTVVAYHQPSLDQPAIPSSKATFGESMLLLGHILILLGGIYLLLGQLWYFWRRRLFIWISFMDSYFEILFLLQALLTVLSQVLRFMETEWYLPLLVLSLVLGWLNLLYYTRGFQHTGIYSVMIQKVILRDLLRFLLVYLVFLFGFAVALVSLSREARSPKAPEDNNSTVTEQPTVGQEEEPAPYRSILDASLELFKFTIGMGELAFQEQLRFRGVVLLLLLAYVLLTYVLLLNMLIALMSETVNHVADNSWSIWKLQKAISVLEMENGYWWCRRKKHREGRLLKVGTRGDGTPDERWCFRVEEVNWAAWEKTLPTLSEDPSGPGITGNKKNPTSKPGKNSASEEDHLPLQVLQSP

Question: Which “channel activation by 2-APB” value [1] does the source give for `NCCOB(c1ccccc1)c1ccccc1` [2-APB, 2-aminoethoxydiphenyl borate] here?
Answer: retaining sensitivity

Question: What about the “channel activation by 2-APB” value (WT TRPV1; 2 mM 2-APB, +60 and -60 mV) of the same molecule?
Answer: reversible activation

Question: What about the “channel activation by 2-APB” value (WT TRPV2) of the same molecule?
Answer: could be activated

Question: For `N.N.N.N.N.N.N.N.N.N.N.N.N.N.[Cl-].[Cl-].[Cl-].[Cl-].[Cl-].[Cl-].[O-2].[O-2].[Ru+3].[Ru+3].[Ru+4]` [RR, ruthenium red], which “inhibition of RTx-activated currents by RR” value (WT TRPV1; 50 µM RR after 100 nM RTx) is on record?
Answer: blocked the RTx-activated currents

Question: With `COc1cc(CNC(=O)CCCC/C=C/C(C)C)ccc1O` [capsaicin] as the molecule, how does the sensitivity to capsaicin (TRPV2) read?
Answer: insensitive to capsaicin

Question: And the “channel activation by capsaicin” value (TRPV2 QM)?
Answer: remained insensitive

B1: double-knot toxin (protein, UniProt P0CH43 1-79, looked up)
Tau-theraphotoxin-Hs1a: DCAKEGEVCSWGKKCCDLDNFYCPMEFIPHCKKYKPYVPVTTNCAKEGEVCGWGSKCCHGLDCPLAFIPYCEKYRGRND
Question: Which “enhancement of the affinity for RTx by DkTx” value [2] does the source give for B1 here?
Answer: about 3 fold
